Like-named read-outs stand apart in the source and are kept apart here. Marks after values point to notes of the source that are not given here. Peptide text beside a SMILES is read from it. * marks the point of attachment. Levofloxacinoyl = C[C@H]1COc2c(N3CCN(C)CC3)c(F)cc3c(=O)c(C(=O)*)cn1c23
What was measured:
[1] = Distribution coefficient (1-octanol / 10 mM NaPO4 pH 7.4); settings: for logD at 10 min: pH 7.4
Method: In these experiments, P4LC, Pep-4 or free LVFX dissolved in 100 μL of 10 mM NaPO4 (pH 7.4) buffer was combined with 100 μL of 1-Octanol in a 1.5 mL low binding polypropylene microcentrifuge tube (Corning). Each tube was vortexed for 10 min and the contained solvent allowed to settle. […] The maximal concentrations of Pep-4 and P4LC in the calibration curves were also established using amino acid analysis (UC Davis Genome Center Proteomics Core Facility). […] Indolicidin and melittin were used as reference peptides in these studies. […] The D7.4 values generated for P4LC, Pep-4, LVFX, indolicidin, and melittin were calculated (equation 5) based on their respective concentrations in the aqueous phase ([peptide]PO4buffer) of the water/octanol biphasic system and their concentrations in the initial stock solution ([peptide]total). Values are averaged from six replicates.
(5) logD7.4=log(([peptide]total−[peptide]PO4buffer)/([peptide]PO4buffer)) =log ([peptide]octanol/[peptide]PO4buffer)
The concentration ratios of each compound between the two liquid phases were used to establish distribution coefficients (D7.4). Indolicidin and melittin were used as reference peptides in these studies.

B. cereus membranes [2] = experiment: SYTOX green membrane perturbation assay; type: cell-based; settings: 10 mM NaPO4 pH 7.4, 33 μM P4LC, 33 μM Pep-4, 126 μM Pep-4/LVFX, 93 μM LVFX, melittin = maximal, biological triplicates
Method: (§1) Enumerated frozen aliquots of E. coli and B. cereus cells were thawed and washed 3x with buffer (10 mM NaPO4, pH 7.4). The washed cells were diluted to a concentration of 4 × 10^7 CFU/mL in 10 mM NaPO4 (pH 7.4) buffer containing 5 μM SYTOX Green, and the resulting suspension then stored in the dark for ~20 min. The bacterial suspension was then distributed in 100 μL aliquots to wells of a black polypropylene microtiter plate (Greiner Bio-One). […] The fluorescence of each well was immediately monitored (without the lid) using a SpectraMax Gemini EM plate-reading fluorometer (485/520 nmem). […] A negative control containing only bacteria and SYTOX Green was used to determine background fluorescence, and maximal perturbation of the bacterial cell membranes was established using melittin. The fluorescence kinetics data sets were normalized by setting emitted fluorescence to 0 at t = 0 s and presenting fluorescence intensity values as a fraction of maximal fluorescence observed for melittin.
(§2) For membrane depolarization and perturbation experiments, fluorescence data was analyzed by comparing best-fit curves (GraphPad Prism). Fluorescence kinetic curves were fit to a polynomial regression model (equation 4) to allow for statistical comparison of the fluorescence data via an F test, with all four best-fit parameters used as criteria. […]

E. coli membranes [3] = experiment: SYTOX green membrane perturbation assay; type: cell-based; settings: 10 mM NaPO4 pH 7.4, 33 μM P4LC, 33 μM Pep-4, 126 μM Pep-4/LVFX, 93 μM LVFX, biological triplicates
Method: as §1, §2

B. cereus (#11778) [4] = test system: B. cereus (#11778)
Method: (§4) Frozen enumerated aliquots of bacteria were thawed and diluted into sterile buffer to a bacterial concentration of 2 × 10^6 CFU/mL. Wells of a 96-well polypropylene microtiter plate (Greiner Bio-One) were charged with 50 μL aliquots of buffer solutions containing serially diluted peptide, conjugate, or drug followed by 50 μL aliquots of diluted bacterial cells. Assays for each compound were prepared in triplicate. Control wells were prepared where the peptide/conjugate/drug solution was replaced with an equal volume of buffer alone. Following addition of bacteria, the microtiter plates were incubated for 3 h at either 37°C (E. coli) or 30°C (B. cereus). […] Plates were then immediately placed in a SpectraMax Gemini EM plate-reading fluorometer for overnight monitoring of fluorescence (530 nmex/590 nmem) at either 37°C (E. coli) or 30°C (B. cereus) with intermittent shaking. Onset time of half maximal fluorescence (T0.5) observed for each well was computed using the microplate data analysis software. In order to determine bacterial survival, it was necessary to establish correlations between bacterial concentration (CFU/mL) and T0.5 values. Therefore, standard curve equations were generated in preliminary experiments using bacterial suspensions serially diluted (~10^6 CFU/mL—10^3 CFU/mL) in each of the three buffers used in the antibacterial assays.
(§5) (2) log(CFU/mLB.cereus)=−1.00 × 10^−4(T0.5)+Yint
(§6) (3) Bacterial Survival=Smin+(Smax−Smin)/ (1+10^log(EC50)−log(PC)∗HS)
(§7) Assays were conducted under three different ionic strength (μ) buffer conditions in order to assess the effect salt concentration had on antibacterial effectiveness. The lowest ionic strength buffer used was 10 mM NaPO4, pH 7.4, which corresponded to 26 mM total ionic strength. […] Bacterial survival results were plotted against the log of the concentration of conjugate, peptide, or free drug. EC50 values for each assessed compound were calculated by fitting the survival data to equation 3, which models typical sigmoidal dose-response behavior using a variable Hill slope. An F test was used to assess statistical significance, with the alpha level set to 0.05.

B. cereus membranes [5] = experiment: DiSC(3)5 membrane depolarization assay; type: cell-based; settings: B. cereus 2 × 10^7 CFU/mL; 10 mM NaPO4 pH 7.4; 33 μM P4LC and Pep-4, 126 μM Pep-4/LVFX, 93 μM LVFX; melittin 33 μM = maximal; monitored 30 min; triplicate
Method: (§3) Enumerated frozen aliquots of E. coli and B. cereus cells were thawed and washed 3x with buffer (10 mM NaPO4, pH 7.4). The washed cells were diluted in 10 mM NaPO4 buffer containing 10 ug/mL DiSC(3)5 to afford a concentration of 4 × 10^7 CFU/mL. Bacterial suspension was added to the wells of a black polypropylene microtiter plate (Greiner Bio-One) in 100 μL aliquots, and fluorescence was monitored (rt, with lid on) using a SpectraMax Gemini EM plate-reading fluorometer (622 nmex/ 670 nmem) until fluorescence quenching stabilized and maximal DiSC(3)5 uptake was achieved. […] The final concentrations of each assessed compound in the wells were 33 μM (P4LC and Pep-4), 126 μM (Pep-4/LVFX), and 93 μM (LVFX), while final bacterial concentrations were 2 × 10^7 CFU/mL. Assays were performed in triplicate for each compound assessed. […] The fluorescence kinetics data sets were normalized by setting emitted fluorescence to 0 at t = 0 s and presenting fluorescence intensity values as a fraction of maximal fluorescence observed for melittin.
as §2

E. coli membranes [6] = experiment: DiSC(3)5 membrane depolarization assay; type: cell-based; settings: E. coli 2 × 10^7 CFU/mL; 10 mM NaPO4 pH 7.4; 33 μM P4LC and Pep-4, 126 μM Pep-4/LVFX, 93 μM LVFX; melittin 33 μM = maximal; monitored 30 min; triplicate
Method: as §3, §2

E. coli (#25922) [7] = experiment: microbe, parasite or virus in culture; settings: Escherichia coli, 3 h, pH 7.4, read-out: EC50 (95% confidence interval), E. coli, resazurin read-out, triplicate
Method: as §4
(§8) (1) log(CFU/mLE.coli)=−2.00 × 10^−4(T0.5)+Yint
as §6, §7

B. cereus (#11778) [8] = experiment: microbe, parasite or virus in culture; settings: Bacillus cereus, 3 h
Method: as §4, §5, §6, §7

E. coli (#25922) [9] = settings: for EC50: read-out: EC50 (95% confidence interval), E. coli, resazurin read-out, triplicate
Method: as §4, §8, §6, §7

[10] = read-out: EC50 (95% confidence interval), B. cereus, ionic strength μ2 = 111 mM (10 mM NaPO4 : cation-adjusted PBS 1:1, pH 7.4), 3 h at 30°C, resazurin read-out, triplicate, * = estimated, lower survival boundary set to 0
[11] = ionic strength μ1 = 26 mM (10 mM NaPO4, pH 7.4), 3 h incubation at 37°C
[12] = ionic strength μ2 = 111 mM (10 mM NaPO4 : cation-adjusted PBS 1:1, pH 7.4), 3 h at 37°C
[13] = ionic strength μ3 = 167 mM (cation-adjusted PBS, pH 7.4), 3 h at 37°C, * = estimated, lower survival boundary set to 0

C[C@H]1COc2c(N3CCN(C)CC3)c(F)cc3c(=O)c(C(=O)O)cn1c23 [LVFX, Levofloxacin]
D7.4 fold greater than P4LC ([1]; 1-octanol / 10 mM NaPO4 pH 7.4, ratio of D7.4 values): about 4.5 fold | SYTOX Green fluorescence increase relative to melittin (membrane perturbation) (B. cereus membranes [2]): No increase in fluorescence | mean maximal SYTOX Green fluorescence relative to melittin (membrane perturbation) (E. coli membranes [3]): No increase in fluorescence | EC50 (B. cereus (#11778) [4]; [10]): 591 nM | mean maximal DiSC(3)5 fluorescence relative to melittin (membrane depolarization) (B. cereus membranes [5]): 2.5% | mean maximal DiSC(3)5 fluorescence relative to melittin (membrane depolarization) (E. coli membranes [6]): 8.4% | EC50 (E. coli (#25922) [7]; [11]): 2.81 nM | EC50 (E. coli (#25922) [7]; [12]): 2.23 nM | EC50 (E. coli (#25922) [7]; [13]): 2.77 nM | EC50 (B. cereus (#11778) [8]; pH 7.4, read-out: EC50 (95% confidence interval)): 981 nM | EC50 (B. cereus (#11778) [8]; pH 7.4, read-out: EC50 (95% confidence interval), B. cereus, ionic strength μ1 = 26 mM (10 mM NaPO4, pH 7.4), 3 h incubation at 30°C, resazurin read-out, triplicate): 212 nM

C[C@H]1COc2c(N3CCN(C)CC3)c(F)cc3c(=O)c(C(=O)NCCCC[C@H](NC(=O)[C@H](CCCCNC(=O)c4cn5c6c(c(N7CCN(C)CC7)c(F)cc6c4=O)OC[C@@H]5C)NC(=O)[C@H](CCCNC(=N)N)NC(=O)[C@H](CCCNC(=N)N)NC(=O)[C@H](CO)NC(=O)[C@H](CO)NC(=O)[C@H](CCCNC(=N)N)NC(=O)[C@H](CCCNC(=N)N)NC(=O)CNC(=O)[C@H](CCCNC(=N)N)NC(=O)c4cn5c6c(c(N7CCN(C)CC7)c(F)cc6c4=O)OC[C@@H]5C)C(N)=O)cn1c23 [P4LC] (Levofloxacinoyl-RGRRSSRRK(Levofloxacinoyl)K(Levofloxacinoyl)-NH2)
logD at 10 min [1]: -1.65 | EC50 (B. cereus (#11778) [4]; read-out: EC50 (95% confidence interval), B. cereus, ionic strength μ1 = 26 mM (10 mM NaPO4, pH 7.4), 3 h incubation at 30°C, resazurin read-out, triplicate): 21.8 nM | EC50 (B. cereus (#11778) [4]; [10]): 2170 nM | EC50 (B. cereus (#11778) [4]; read-out: EC50 (95% confidence interval), B. cereus, ionic strength μ3 = 167 mM (cation-adjusted PBS, pH 7.4), 3 h at 30°C, resazurin read-out, triplicate, * = estimated, lower survival boundary set to 0): 40000 nM | EC50 (E. coli (#25922) [9]; [11]): 16.7 nM | EC50 (E. coli (#25922) [9]; [12]): 1710 nM | EC50 (E. coli (#25922) [9]; [13]): 1510 nM

N=C(N)NCCC[C@H](NC(=O)CNC(=O)[C@@H](N)CCCNC(=N)N)C(=O)N[C@@H](CCCNC(=N)N)C(=O)N[C@@H](CO)C(=O)N[C@@H](CO)C(=O)N[C@@H](CCCNC(=N)N)C(=O)N[C@@H](CCCNC(=N)N)C(=O)N[C@@H](CCCCN)C(=O)N[C@@H](CCCCN)C(N)=O [Pep-4] (H-RGRRSSRRKK-NH2)
logD at 10 min [1]: -2.57 | EC50 (B. cereus (#11778) [4]; #11778, 3 h, pH 7.4): 27.1 nM | EC50 (95% confidence interval) (E. coli (#25922) [9]; #25922, 3 h, pH 7.4): ~29.4 ^* (21.9–35.4)^* μM

CC[C@H](C)[C@H](N)C(=O)N[C@@H](CC(C)C)C(=O)N1CCC[C@H]1C(=O)N[C@@H](Cc1c[nH]c2ccccc12)C(=O)N[C@@H](CCCCN)C(=O)N[C@@H](Cc1c[nH]c2ccccc12)C(=O)N1CCC[C@H]1C(=O)N[C@@H](Cc1c[nH]c2ccccc12)C(=O)N[C@@H](Cc1c[nH]c2ccccc12)C(=O)N1CCC[C@H]1C(=O)N[C@@H](Cc1c[nH]c2ccccc12)C(=O)N[C@@H](CCCN=C(N)N)C(=O)N[C@@H](CCCN=C(N)N)C(N)=O [indolicidin]
logD at 10 min [1]: 2.3

CC[C@H](C)[C@H](NC(=O)CN)C(=O)NCC(=O)N[C@@H](C)C(=O)N[C@H](C(=O)N[C@@H](CC(C)C)C(=O)N[C@@H](CCCCN)C(=O)N[C@H](C(=O)N[C@@H](CC(C)C)C(=O)N[C@H](C(=O)N[C@H](C(=O)NCC(=O)N[C@@H](CC(C)C)C(=O)N1CCC[C@H]1C(=O)N[C@@H](C)C(=O)N[C@@H](CC(C)C)C(=O)N[C@H](C(=O)N[C@@H](CO)C(=O)N[C@@H](Cc1c[nH]c2ccccc12)C(=O)N[C@H](C(=O)N[C@@H](CCCCN)C(=O)N[C@@H](CCCNC(=N)N)C(=O)N[C@@H](CCCCN)C(=O)N[C@@H](CCCNC(=N)N)C(=O)N[C@@H](CCC(N)=O)C(=O)N[C@@H](CCC(N)=O)C(N)=O)[C@@H](C)CC)[C@@H](C)CC)[C@@H](C)O)[C@@H](C)O)C(C)C)C(C)C [melittin, Melittin]
logD at 10 min [1]: -0.46

— article PMC4166900, “Covalent modification of a ten-residue cationic antimicrobial peptide with levofloxacin” (Frontiers in Chemistry, 2014)
